Data reported in PMC6158189, “A pharmacological probe identifies cystathionine β-synthase as a new negative regulator for ferroptosis” (Cell Death & Disease, 2018).
Several values for one entry are separate records, joined by “and”; a condition that tells them apart may be missing. Identical values can stand only once. Like-named read-outs stand apart in the source and are kept apart here.

Target: T1, hCBS (Homo sapiens, UniProt P35520)
T1 construct: GST (N); made in house; host or cells: E. coli BL21
T1 sequence (P35520 1-551): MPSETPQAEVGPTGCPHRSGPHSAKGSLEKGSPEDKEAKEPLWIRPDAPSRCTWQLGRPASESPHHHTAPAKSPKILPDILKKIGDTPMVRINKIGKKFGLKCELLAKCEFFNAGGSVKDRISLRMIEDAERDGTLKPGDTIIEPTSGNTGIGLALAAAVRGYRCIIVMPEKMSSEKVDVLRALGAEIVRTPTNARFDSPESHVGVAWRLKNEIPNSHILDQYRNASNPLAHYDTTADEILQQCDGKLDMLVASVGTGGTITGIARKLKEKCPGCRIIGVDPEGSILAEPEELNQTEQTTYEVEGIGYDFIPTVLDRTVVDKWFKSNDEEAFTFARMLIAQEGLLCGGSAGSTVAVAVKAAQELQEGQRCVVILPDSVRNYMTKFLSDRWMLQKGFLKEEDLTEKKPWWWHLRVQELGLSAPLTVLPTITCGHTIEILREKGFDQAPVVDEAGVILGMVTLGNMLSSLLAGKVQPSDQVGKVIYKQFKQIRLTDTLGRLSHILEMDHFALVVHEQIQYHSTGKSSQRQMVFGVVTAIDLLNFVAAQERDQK
Test: enzyme kinetics of hCBS inhibition
Type: biochemical
Procedure: Figure S2. The mode of action of CH004 in inhibiting hCBS. […] After incubation with DMSO or CH004 at 10 μM for 40 min, hCBS (20 μM) was diluted 200-fold and the activity was measured according to the standard assay protocol (Materials and Methods). The data are presented as percentages of control (CTR; DMSO, 100%) and shown as means ± SDs (n = 5). The effects of 0.05 and 10 μM CH004 on hCBS (100 nM) without pre-incubation were defined as positive control (PC) and negative control (NC), respectively. (B) Inhibition of hCBS by CH004 as a function of PLP concentration with Cys (20 mM) together with Hcys (10 mM) as substrates (non-competitive inhibition constant αKi=15.2 ± 4.9 μM). (C) Inhibition of hCBS by CH004 as a function of Cys concentration in the presence of 100 μM PLP and the absence of Hcys (mixed inhibition constant αKi=26.4 ± 8 μM). (D) Inhibition of hCBS by CH004 as a function of Hcys concentration in the presence of 20 mM Cys and 100 μM PLP (mixed inhibition constant αKi’=7.2 ± 1.6 μM). Each point in the Lineweaver-Burk plots represents the means of triplicate. The αKi or αKi’ values were calculated by using the non-linear fitting method for enzyme kinetics in GraphPad Prism 5. (E) Surface Plasmon Resonance assays analysis of the binding of CH004 to hCBS. Solutions with various concentrations of CH004 (0.097–12.5 µM) were injected into the chamber with a hCBS-coated sensor chip. The change of response units is shown over time. Dissociation constants for CH004 (KD) were calculated by using Biacore evaluation software (Materials and Methods).

Cn1nc(Cc2ccccc2)nc2c(=O)n(C)c(=O)nc1-2 [CH004, 3-benzyl-1,6-dimethylpyrimido[5,4-e][1,2,4]triazine-5,7(1H,6H)-dione]
mode of inhibition toward Cys and Hcys: mixed-type inhibition
mode of inhibition toward PLP: noncompetitive inhibition
Ki (100 μM PLP, absence of Hcys, read-out: αKi toward Cys (mixed inhibition constant)): ~26.4 µM and 26.4 µM
Ki (20 mM Cys, 100 μM PLP, read-out: αKi’ toward Hcys (mixed inhibition constant)): ~7.2 µM and 7.2 µM
Ki (Cys 20 mM and Hcys 10 mM as substrates, read-out: αKi toward PLP (non-competitive inhibition constant)): ~15.2 µM and 15.2 µM
